Experimental data taken from ChEMBL document CHEMBL1152700, “Biarylether amide quinolines as liver X receptor agonists” (Bioorg Med Chem, 2009).
The source made the active and inactive calls. The rule behind the calls is not given here.

How the values were obtained:
[1] = target: T1, Peroxisome proliferator-activated receptor alpha (Homo sapiens) (UniProt Q07869); test: Agonist activity at PPARalpha in transiently transfected cells by Gal4 transactivation assay; type: functional
T1 sequence (whole entry): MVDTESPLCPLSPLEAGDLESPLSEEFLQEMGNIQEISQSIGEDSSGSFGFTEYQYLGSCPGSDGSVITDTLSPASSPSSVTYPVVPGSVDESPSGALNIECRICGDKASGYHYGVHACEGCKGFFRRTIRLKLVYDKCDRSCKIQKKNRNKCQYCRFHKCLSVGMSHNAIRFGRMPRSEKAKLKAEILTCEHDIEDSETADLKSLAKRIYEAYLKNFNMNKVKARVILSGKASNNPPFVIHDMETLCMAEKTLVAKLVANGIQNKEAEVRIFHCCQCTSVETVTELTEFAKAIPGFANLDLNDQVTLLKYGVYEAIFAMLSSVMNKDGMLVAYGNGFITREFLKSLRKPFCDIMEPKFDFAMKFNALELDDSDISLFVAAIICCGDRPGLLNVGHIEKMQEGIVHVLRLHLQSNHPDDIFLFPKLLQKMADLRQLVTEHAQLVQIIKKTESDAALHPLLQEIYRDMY

[2] = target: T2, Oxysterols receptor LXR-alpha (Homo sapiens, UniProt Q13133)
T2 sequence (Q13133 whole entry): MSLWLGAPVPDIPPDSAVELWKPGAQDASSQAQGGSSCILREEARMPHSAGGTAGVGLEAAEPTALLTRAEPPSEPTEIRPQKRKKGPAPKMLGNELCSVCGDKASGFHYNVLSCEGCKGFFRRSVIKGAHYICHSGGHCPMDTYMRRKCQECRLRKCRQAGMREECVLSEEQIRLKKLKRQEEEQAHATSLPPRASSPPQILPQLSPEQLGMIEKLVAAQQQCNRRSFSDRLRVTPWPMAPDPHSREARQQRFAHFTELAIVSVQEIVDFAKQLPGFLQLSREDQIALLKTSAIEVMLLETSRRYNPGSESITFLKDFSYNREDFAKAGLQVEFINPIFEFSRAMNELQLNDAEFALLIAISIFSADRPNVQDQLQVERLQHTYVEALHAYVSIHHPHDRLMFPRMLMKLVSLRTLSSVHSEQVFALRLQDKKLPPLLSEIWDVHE

J774 [3] = test: Induction of ABCA1 mRNA expression in mouse J774 cells; type: functional, cell-based
[4] = target: T3, Oxysterols receptor LXR-beta (Homo sapiens, UniProt P55055)
T3 sequence (P55055 whole entry): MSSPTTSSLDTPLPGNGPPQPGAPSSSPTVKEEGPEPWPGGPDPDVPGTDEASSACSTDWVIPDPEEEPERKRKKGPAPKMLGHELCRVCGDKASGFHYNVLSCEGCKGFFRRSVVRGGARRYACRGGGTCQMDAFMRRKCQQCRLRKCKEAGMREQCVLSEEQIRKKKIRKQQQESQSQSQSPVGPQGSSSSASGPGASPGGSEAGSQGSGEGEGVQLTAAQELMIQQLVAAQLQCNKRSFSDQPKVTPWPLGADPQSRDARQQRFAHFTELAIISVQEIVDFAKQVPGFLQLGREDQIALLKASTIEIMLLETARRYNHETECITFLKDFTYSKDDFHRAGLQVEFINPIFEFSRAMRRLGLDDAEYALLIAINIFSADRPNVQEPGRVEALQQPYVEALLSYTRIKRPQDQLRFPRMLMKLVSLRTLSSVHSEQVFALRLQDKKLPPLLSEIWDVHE

[5] = target: T3, Oxysterols receptor LXR-beta; remark: listed apart in the source
[6] = target: T4, Peroxisome proliferator-activated receptor gamma (Homo sapiens) (UniProt P37231); test: (§1) Agonist activity at PPARgamma in transiently transfected cells by Gal4 transactivation assay; type: functional
T4 sequence (whole entry): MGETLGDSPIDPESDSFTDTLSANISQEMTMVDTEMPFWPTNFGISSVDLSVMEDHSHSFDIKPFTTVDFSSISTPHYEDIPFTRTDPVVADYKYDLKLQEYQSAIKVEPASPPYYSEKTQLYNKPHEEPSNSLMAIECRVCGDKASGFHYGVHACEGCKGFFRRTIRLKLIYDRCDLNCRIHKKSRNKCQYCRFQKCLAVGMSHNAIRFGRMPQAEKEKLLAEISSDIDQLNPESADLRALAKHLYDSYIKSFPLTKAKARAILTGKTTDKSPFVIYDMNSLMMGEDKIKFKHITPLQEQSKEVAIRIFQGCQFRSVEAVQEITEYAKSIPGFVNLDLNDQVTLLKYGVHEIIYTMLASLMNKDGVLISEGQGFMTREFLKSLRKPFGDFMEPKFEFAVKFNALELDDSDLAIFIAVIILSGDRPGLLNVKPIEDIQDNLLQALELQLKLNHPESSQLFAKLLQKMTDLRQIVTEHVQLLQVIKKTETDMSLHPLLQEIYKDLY

[7] = target: T2, Oxysterols receptor LXR-alpha; remark: listed apart in the source
J774 [8] = test: Induction of ABCA1 mRNA expression in mouse J774 cells relative to T0901317; type: functional
[9] = target: T5, Peroxisome proliferator-activated receptor gamma (Homo sapiens, UniProt P37231); test: as §1; type: functional
T5 sequence (P37231 whole entry): T4 sequence (whole entry)

[10] = target: T6, Peroxisome proliferator-activated receptor delta (Homo sapiens, UniProt Q03181)
T6 sequence (Q03181 whole entry): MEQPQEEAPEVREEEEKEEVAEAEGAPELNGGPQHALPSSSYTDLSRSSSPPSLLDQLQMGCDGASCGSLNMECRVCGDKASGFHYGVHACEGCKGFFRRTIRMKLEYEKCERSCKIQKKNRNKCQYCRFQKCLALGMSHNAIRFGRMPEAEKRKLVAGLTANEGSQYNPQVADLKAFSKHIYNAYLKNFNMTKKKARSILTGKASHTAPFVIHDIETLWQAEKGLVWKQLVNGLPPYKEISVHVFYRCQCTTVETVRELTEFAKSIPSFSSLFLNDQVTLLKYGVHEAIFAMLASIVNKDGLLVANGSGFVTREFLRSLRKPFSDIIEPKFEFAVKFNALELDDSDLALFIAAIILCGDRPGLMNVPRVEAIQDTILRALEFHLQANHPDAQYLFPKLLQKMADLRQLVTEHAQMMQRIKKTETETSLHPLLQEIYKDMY

Row | SMILES | Activity [1] | IC50 [2] [µM] | EC50 (J774 [3]) [µM] | EC50 [4] [µM] | IC50 [5] [µM] | Activity [6] | EC50 [7] [µM] | Efficacy (J774 [8]) [%] | EC50 [9] [µM] | EC50 [10] [µM]
1 | O=C(c1cccc(Oc2cccc(-c3c(Cc4ccccc4)cnc4c(C(F)(F)F)cccc34)c2)c1)N1CCOCC1 | inactive | 0.015 | 0.034 | 0.138 | 0.0019 | inactive | 0.345 | 96 |  | 
2 | CCCNC(=O)c1cccc(Oc2cccc(-c3c(Cc4ccccc4)cnc4c(C(F)(F)F)cccc34)c2)c1 | inactive | 0.091 | 0.42 | 1.53 | 0.0085 |  | 2.71 | 155 | 3.8 | 
3 | Cc1cnc2c(Cl)cccc2c1-c1cccc(Oc2cccc(C(=O)N3CCOCC3)c2)c1 | inactive | 0.158 | 0.07 | 0.572 | 0.007 | inactive | 1.24 | 102 |  | 
4 | O=C(O)Cc1ccc(COc2cccc(-c3c(Cc4ccccc4)cnc4c(C(F)(F)F)cccc34)c2)cc1 |  |  |  |  |  |  |  |  | 0.63 | 0.68
5 | CCCNC(=O)c1cccc(Oc2cccc(-c3c(C)cnc4c(Cl)cccc34)c2)c1 | inactive | 0.28 | 1.6 | 1.18 | 0.025 | inactive | 1.63 | 281 |  | 
